Entries after “also recorded” stand apart in the source; their conditions may differ.
Assays:
5HT1A (h) = target: T1, 5HT1A (h) (Homo sapiens, UniProt P08908); experiment: 5HT subtype antagonism assay (Eurofins Cerep): 5HT1A; format: cell-based; conditions: concentration not given
T1 construct: host or cells: BA/F3 cells

HFD-fed C57BL/6J mice = experiment: DIO mice: quantification of hepatic triglyceride; format: in vivo, mouse; conditions: DIO mice; for Hepatic TG levels, Mean Diff. (Vehicle vs. treated): Dunnett's multiple comparisons test; for Hepatic TG Levels, TG per protein, group mean: PO, liver
Protocol: Liver tissues were homogenized in 5% NP-40 using FastPrep-24. To solubilize fat, the homogenates were heated to 95 °C for 5 min and cooled at 23 °C, and repeated. Triglyceride Reagent (Sigma-Aldrich) or DW was added and incubated at 37 °C for 30 min to hydrolyze TG into glycerol. For the colorimetric assay of hydrolyzed TG levels, samples were incubated with Free Glycerol Reagent (Sigma-Aldrich) at 37 °C for 5 min. Differences in absorbance at 540 nm between hydrolyzed or non-hydrolyzed TG were quantified using a glycerol standard (Sigma-Aldrich). […]

[1] = Hepatocyte stability test, dog; format: in vitro ADME; conditions: male, beagle, cryopreserved hepatocytes, pH 7.4, read-out: Hepatocyte stability (% remaining after 3 h)
Protocol: (§1) Hepatocyte incubations for the test compound (10 μM final concentration, n = 2 per each time point) were carried out in mouse, rat, dog, monkey and human cryopreserved hepatocytes, resuspended at a density of 0.5 million cells/ml of modified Krebs-Henseleit buffer (KHB). The information regarding the hepatocytes used in the experiment is as follows: liverPool® 10-donor mixed gender human (BioIVT, Cat.No. X008001, lot EAV), male cynomolgus monkey (BioIVT, Cat.No. M00305, lot COJ), male Beagle dog (BioIVT, Cat.No. M00205, lot USY), male Sprague Dawley rat (BioIVT, Cat.No. M00005, lot TQE) and male CD1 mouse (BioIVT, Cat.No.005052, lot LFF). In addition, the compound was also incubated with blank KHB. The final concentration of solvent (DMSO) was 0.1% of the final volume. The incubations were performed for 3 hours at 37°C and pH 7.4. Reactions were terminated at 0 and 180 minutes by the addition of 3 volumes of stop solution (acetonitrile/methanol (2:1, v/v) containing internal standard–diclofenac at 100 ng/ml). Samples (compound spiked buffer and compound spiked hepatocytes, as well as blank samples, i.e. hepatocytes with the same DMSO%) were then centrifuged and aliquots were transferred to 96-deep micronic tubes and frozen at -80 °C until LC-MS/MS analysis. […]

5HT4E (h) = target: T2, 5HT4E (h) (Homo sapiens, UniProt Q13639); experiment: 5HT subtype antagonism assay (Eurofins Cerep): 5HT4E; format: cell-based; conditions: concentration not given
T2 construct: host or cells: CHO cells
T2 sequence (Q13639 1-378 isoform Q13639-5): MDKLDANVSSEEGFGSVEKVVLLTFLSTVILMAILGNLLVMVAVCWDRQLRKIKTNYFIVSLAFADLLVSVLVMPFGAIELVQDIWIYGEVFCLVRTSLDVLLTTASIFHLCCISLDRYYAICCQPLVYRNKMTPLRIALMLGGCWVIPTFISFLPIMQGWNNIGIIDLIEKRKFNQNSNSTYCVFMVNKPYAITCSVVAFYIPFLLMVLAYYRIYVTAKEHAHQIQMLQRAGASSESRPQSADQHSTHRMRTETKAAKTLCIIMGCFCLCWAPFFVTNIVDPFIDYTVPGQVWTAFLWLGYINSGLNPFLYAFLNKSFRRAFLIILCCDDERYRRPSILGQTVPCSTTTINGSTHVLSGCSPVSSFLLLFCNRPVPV
Protocol: The derivatives were evaluated at a concentration of 1 μM for their antagonist activity on the 5HT2A receptor (Tables 1–3)[33],[34]. Human 5HT2A stably transfected HEK293 cells (a type of cell derived from kidney embryos)[20] were seeded in a 96-well plate (Costar; 3603) at a density of 9 × 10^4 in 100 μL of minimum essential medium (Welgene; LM007-86) containing 10% dialyzed fetal bovine serum (Gibco; 30067–334) and 1% penicillin/streptomycin (Gibco; 15140-122) and kept in a 37 °C incubator for 24 h. The cells were stained with 100 μL of cytosolic calcium dye using the FLIPR calcium 6 assay solution (Molecular devices, #R8190) supplemented with 2.5 mM probenecid (Sigma; P8761) and incubated for 1 h at 37 °C. After 1 h, the designated amount of the compound was treated in each well and incubated for another 1 h at 37 °C. Then, the cells were loaded in a Flexstation 3 microplate reader (Molecular Devices; FlexStaion) and 50 μL of 5 μM 5HT (serotonin hydrochloride, Sigma; H9523) was injected from a source plate (Nunc 96-well polystyrene conical bottom MicroWell Plate, Thermo; 249662) and the fluorescence intensity (Ex/Em-485nm/ 525 nm) was measured. […]
Antagonism assay Source Stimulus Incubation Measured Detection Method […]

[2] = Hepatocyte stability test, mouse; format: in vitro ADME; conditions: male, CD1, cryopreserved hepatocytes, pH 7.4, read-out: Hepatocyte stability (% remaining after 3 h)
Protocol: as §1

T1 sequence (P08908 whole entry): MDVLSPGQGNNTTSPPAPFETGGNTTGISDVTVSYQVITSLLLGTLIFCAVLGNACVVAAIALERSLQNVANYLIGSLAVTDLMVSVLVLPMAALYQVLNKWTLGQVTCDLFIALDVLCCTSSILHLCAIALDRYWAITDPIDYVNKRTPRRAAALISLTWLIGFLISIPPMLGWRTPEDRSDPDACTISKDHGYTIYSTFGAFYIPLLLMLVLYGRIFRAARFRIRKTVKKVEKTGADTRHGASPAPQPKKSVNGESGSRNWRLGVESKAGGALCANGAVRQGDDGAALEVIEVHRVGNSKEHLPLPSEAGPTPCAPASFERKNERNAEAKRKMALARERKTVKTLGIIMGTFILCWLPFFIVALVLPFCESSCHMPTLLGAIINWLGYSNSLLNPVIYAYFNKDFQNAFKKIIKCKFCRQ

SMILES: Cc1nc2n(c(=O)c1CCN1CCC(=C3c4ccc(Cl)cc4CCc4cccnc43)CC1)CCCC2O (stereo not drawn) [Compound 11c]
- Selectivity 1 A: % inhibition (5HT1A (h)): 9%
- Hepatic TG levels, Mean Diff. (Vehicle vs. treated) (HFD-fed C57BL/6J mice; 5mpk): 5.95 mg/g protein
- Hepatic TG levels, Mean Diff. (Vehicle vs. treated) (HFD-fed C57BL/6J mice; 10mpk): 31.37 mg/g protein
- Hepatic TG Levels, TG per protein, group mean (HFD-fed C57BL/6J mice; 5mpk): 79.94 mg/g protein
- Hepatic TG Levels, TG per protein, group mean (HFD-fed C57BL/6J mice; 10mpk): 54.51 mg/g protein
- hepatic TG concentration (HFD-fed C57BL/6J mice; vs vehicle): significant reduction; also recorded: decreased
- remaining at 3 h, 10 μM [1]: 88.5%
- Selectivity 4E: % inhibition (5HT4E (h)): -3%
- remaining at 3 h, 10 μM [2]: 75%
